According to PubChem BioAssay (NCI):
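Five concentrations, 48 hours, 96-well plates. At the GI50, growth is halved. At the TGI there is no net growth.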

Legend:
Assay in all cases: DTP human tumour cell line panel, 48 h
RXF 393 renal = tested on: RXF 393 renal
SR leukemia = tested on: SR leukemia
NCI/ADR-RES ovarian = tested on: NCI/ADR-RES ovarian
NCI-H226 lung = tested on: NCI-H226 lung
HOP-92 NSCLC = tested on: HOP-92 NSCLC
M14 melanoma = tested on: M14 melanoma
SK-MEL-5 melanoma = tested on: SK-MEL-5 melanoma
COLO 205 colon = tested on: COLO 205 colon
CAKI-1 renal = tested on: CAKI-1 renal
UACC-257 melanoma = tested on: UACC-257 melanoma
UO-31 renal = tested on: UO-31 renal
U251 CNS = tested on: U251 CNS
SN12C renal = tested on: SN12C renal
HCT-116 colon = tested on: HCT-116 colon
HL-60(TB) leukemia = tested on: HL-60(TB) leukemia
SK-OV-3 ovarian = tested on: SK-OV-3 ovarian
OVCAR-4 ovarian = tested on: OVCAR-4 ovarian
SK-MEL-28 melanoma = tested on: SK-MEL-28 melanoma
NCI-H460 lung = tested on: NCI-H460 lung
SW-620 colon = tested on: SW-620 colon
RPMI-8226 leukemia = tested on: RPMI-8226 leukemia
SK-MEL-2 melanoma = tested on: SK-MEL-2 melanoma
T-47D breast = tested on: T-47D breast
HCC-2998 colon = tested on: HCC-2998 colon
NCI-H522 lung = tested on: NCI-H522 lung
TK-10 renal = tested on: TK-10 renal
HOP-62 NSCLC = tested on: HOP-62 NSCLC
ACHN renal = tested on: ACHN renal
UACC-62 melanoma = tested on: UACC-62 melanoma

`CN(C)c1ccc(N=Nc2ccc(Br)cn2)c(O)c1` showed a TGI (RXF 393 renal) of 7060 nM, a GI50 (SR leukemia) of 149 nM and a TGI (SR leukemia) greater than 34000 nM. It also gave a GI50 (NCI/ADR-RES ovarian) of 362 nM, a TGI (NCI/ADR-RES ovarian) of 12500 nM and a GI50 (NCI-H226 lung) of 1080 nM. The TGI (NCI-H226 lung) was 7680 nM, the GI50 (HOP-92 NSCLC) was 1310 nM and the TGI (HOP-92 NSCLC) was greater than 100000 nM. For the same compound, the GI50 (M14 melanoma) was 691 nM, the TGI (M14 melanoma) was greater than 21300 nM and the GI50 (SK-MEL-5 melanoma) was 774 nM. The TGI (SK-MEL-5 melanoma) was 4350 nM, the GI50 (COLO 205 colon) was 373 nM and the TGI (COLO 205 colon) was greater than 32800 nM. For the same compound, the GI50 (CAKI-1 renal) was 790 nM, the TGI (CAKI-1 renal) was greater than 100000 nM and the GI50 (UACC-257 melanoma) was 2270 nM. For the same compound, the TGI (UACC-257 melanoma) was 7840 nM, the GI50 (UO-31 renal) was 160 nM and the TGI (UO-31 renal) was greater than 100000 nM. It also gave a GI50 (U251 CNS) of 373 nM, a TGI (U251 CNS) greater than 100000 nM and a GI50 (SN12C renal) of 704 nM. For the same compound, the TGI (SN12C renal) was greater than 100000 nM, the GI50 (HCT-116 colon) was 325 nM and the TGI (HCT-116 colon) was greater than 40000 nM. For the same compound, the GI50 (HL-60(TB) leukemia) was 260 nM, the TGI (HL-60(TB) leukemia) was 2440 nM and the GI50 (SK-OV-3 ovarian) was 774 nM. It also gave a TGI (SK-OV-3 ovarian) greater than 100000 nM, a GI50 (OVCAR-4 ovarian) of 186 nM and a TGI (OVCAR-4 ovarian) of 4890 nM. The GI50 (SK-MEL-28 melanoma) was 2050 nM, the TGI (SK-MEL-28 melanoma) was greater than 100000 nM and the GI50 (NCI-H460 lung) was 281 nM. It also gave a TGI (NCI-H460 lung) greater than 34700 nM, a GI50 (SW-620 colon) of 565 nM and a TGI (SW-620 colon) greater than 100000 nM. For the same compound, the GI50 (RPMI-8226 leukemia) was 528 nM, the TGI (RPMI-8226 leukemia) was greater than 100000 nM and the GI50 (SK-MEL-2 melanoma) was 5280 nM. The TGI (SK-MEL-2 melanoma) was greater than 100000 nM, the GI50 (T-47D breast) was 568 nM and the TGI (T-47D breast) was greater than 100000 nM. It also gave a GI50 (HCC-2998 colon) of 476 nM, a TGI (HCC-2998 colon) greater than 100000 nM and a GI50 (NCI-H522 lung) of 983 nM. The TGI (NCI-H522 lung) was greater than 28600 nM, the GI50 (TK-10 renal) was 681 nM and the TGI (TK-10 renal) was greater than 100000 nM. It also gave a GI50 (HOP-62 NSCLC) of 389 nM, a TGI (HOP-62 NSCLC) greater than 73600 nM and a GI50 (ACHN renal) of 361 nM. The TGI (ACHN renal) was greater than 100000 nM, the GI50 (UACC-62 melanoma) was 737 nM and the TGI (UACC-62 melanoma) was 8350 nM.
